Measurements published in PubChem BioAssay (NCI).
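Here, GI50 denotes the concentration required for 50% inhibition of growth. TGI: total growth inhibition.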

How the values were obtained:
Assay in all cases: DTP human tumour cell line panel, 384-well format
[1] = test system: MDA-MB-231 breast
[2] = test system: SK-MEL-5 melanoma
[3] = test system: ACHN renal
[4] = test system: SF-268 CNS
[5] = test system: NCI-H460 NSCLC
[6] = test system: MOLT-4 leukemia
[7] = test system: SF-539 CNS
[8] = test system: IGROV1 ovarian
[9] = test system: HOP-62 NSCLC
[10] = test system: HCT-15 colon
[11] = test system: UACC-62 melanoma
[12] = test system: HCT-116 colon
[13] = test system: A549 NSCLC
[14] = test system: NCI-H522 lung
[15] = test system: M14 melanoma
[16] = test system: PC-3 prostate
[17] = test system: HT29 colon
[18] = test system: MCF7 breast
[19] = test system: SNB-75 CNS
[20] = test system: U251 glioblastoma
[21] = test system: DU-145 prostate
[22] = test system: MALME-3M melanoma
[23] = test system: HCC-2998 colon
[24] = test system: RXF 393 renal
[25] = test system: HOP-92 NSCLC
[26] = test system: KM12 colon
[27] = test system: OVCAR-5 ovarian
[28] = test system: 786-0 renal
[29] = test system: BT-549 breast
[30] = test system: TK-10 renal
[31] = test system: K-562 leukemia
[32] = test system: UO-31 renal
[33] = test system: HS 578T breast
[34] = test system: CCRF-CEM leukemia
[35] = test system: NCI-H226 lung
[36] = test system: T-47D breast
[37] = test system: SNB-19 CNS
[38] = test system: OVCAR-4 ovarian
[39] = test system: SN12C renal
[40] = test system: NCI/ADR-RES ovarian
[41] = test system: LOX IMVI melanoma
[42] = test system: MDA-MB-468 breast
[43] = test system: SK-MEL-28 melanoma
[44] = test system: OVCAR-3 ovarian
[45] = test system: EKVX NSCLC
[46] = test system: SW-620 colon
[47] = test system: SF-295 CNS
[48] = test system: OVCAR-8 ovarian
[49] = test system: UACC-257 melanoma
[50] = test system: MDA-MB-435 melanoma
[51] = test system: HL-60(TB) leukemia
[52] = test system: CAKI-1 renal
[53] = test system: NCI-H23 lung
[54] = test system: COLO 205 colon
[55] = test system: A498 renal
[56] = test system: SK-OV-3 ovarian
[57] = test system: RPMI-8226 leukemia
[58] = test system: NCI-H322M lung
[59] = test system: SK-MEL-2 melanoma
[60] = test system: SR leukemia

Compound: COC[C@H](NC(=O)c1cnc(C)s1)C(=O)N[C@@H](COC)C(=O)N[C@@H](Cc1ccccc1)C(=O)[C@@]1(C)CO1
- GI50 [1]: < 0.01 µM
- TGI [1]: < 0.01 µM
- GI50 [2]: < 0.01 µM
- TGI [2]: < 0.01 µM
- GI50 [3]: < 0.01 µM
- TGI [3]: 0.156 µM
- GI50 [4]: < 0.01 µM
- TGI [4]: < 0.01 µM
- GI50 [5]: 0.0231 µM
- TGI [5]: 0.0996 µM
- GI50 [6]: < 0.01 µM
- TGI [6]: < 0.01 µM
- GI50 [7]: < 0.01 µM
- TGI [7]: < 0.01 µM
- GI50 [8]: 0.015 µM
- TGI [8]: 0.0512 µM
- GI50 [9]: < 0.01 µM
- TGI [9]: < 0.01 µM
- GI50 [10]: 0.0368 µM
- TGI [10]: 0.154 µM
- GI50 [11]: < 0.01 µM
- TGI [11]: < 0.01 µM
- GI50 [12]: < 0.01 µM
- TGI [12]: < 0.01 µM
- GI50 [13]: < 0.01 µM
- TGI [13]: 0.256 µM
- GI50 [14]: < 0.01 µM
- TGI [14]: < 0.01 µM
- GI50 [15]: < 0.01 µM
- TGI [15]: < 0.01 µM
- GI50 [16]: 0.0105 µM
- TGI [16]: 0.024 µM
- GI50 [17]: < 0.01 µM
- TGI [17]: < 0.01 µM
- GI50 [18]: < 0.01 µM
- TGI [18]: 0.325 µM
- GI50 [19]: < 0.01 µM
- TGI [19]: < 0.01 µM
- GI50 [20]: 0.0102 µM
- TGI [20]: 0.0256 µM
- GI50 [21]: < 0.01 µM
- TGI [21]: 0.223 µM
- GI50 [22]: < 0.01 µM
- TGI [22]: < 0.01 µM
- GI50 [23]: < 0.01 µM
- TGI [23]: 0.0112 µM
- GI50 [24]: < 0.01 µM
- TGI [24]: < 0.01 µM
- GI50 [25]: < 0.01 µM
- TGI [25]: < 0.01 µM
- GI50 [26]: < 0.01 µM
- TGI [26]: < 0.01 µM
- GI50 [27]: < 0.01 µM
- TGI [27]: 0.0812 µM
- GI50 [28]: < 0.01 µM
- TGI [28]: 0.127 µM
- GI50 [29]: < 0.01 µM
- TGI [29]: < 0.01 µM
- GI50 [30]: < 0.01 µM
- TGI [30]: 0.0225 µM
- GI50 [31]: 0.011 µM
- TGI [31]: 0.0354 µM
- GI50 [32]: 0.0172 µM
- TGI [32]: 0.033 µM
- GI50 [33]: < 0.01 µM
- TGI [33]: < 0.01 µM
- GI50 [34]: < 0.01 µM
- TGI [34]: < 0.01 µM
- GI50 [35]: < 0.01 µM
- TGI [35]: < 0.01 µM
- GI50 [36]: < 0.01 µM
- TGI [36]: < 0.01 µM
- GI50 [37]: < 0.01 µM
- TGI [37]: 0.0164 µM
- GI50 [38]: 0.0123 µM
- TGI [38]: 0.0298 µM
- GI50 [39]: 0.0107 µM
- TGI [39]: 0.0303 µM
- GI50 [40]: 1.29 µM
- TGI [40]: 2.91 µM
- GI50 [41]: < 0.01 µM
- TGI [41]: 0.012 µM
- GI50 [42]: < 0.01 µM
- TGI [42]: < 0.01 µM
- GI50 [43]: < 0.01 µM
- TGI [43]: 0.0128 µM
- GI50 [44]: < 0.01 µM
- TGI [44]: < 0.01 µM
- GI50 [45]: 0.0144 µM
- TGI [45]: 0.0773 µM
- GI50 [46]: < 0.01 µM
- TGI [46]: < 0.01 µM
- GI50 [47]: < 0.01 µM
- TGI [47]: < 0.01 µM
- GI50 [48]: < 0.01 µM
- TGI [48]: 0.0622 µM
- GI50 [49]: < 0.01 µM
- TGI [49]: 0.0117 µM
- GI50 [50]: < 0.01 µM
- TGI [50]: < 0.01 µM
- GI50 [51]: 0.0107 µM
- TGI [51]: 0.023 µM
- GI50 [52]: < 0.01 µM
- TGI [52]: 1.79 µM
- GI50 [53]: < 0.01 µM
- TGI [53]: < 0.01 µM
- GI50 [54]: < 0.01 µM
- TGI [54]: 1.53 µM
- GI50 [55]: < 0.01 µM
- TGI [55]: 0.0103 µM
- GI50 [56]: < 0.01 µM
- TGI [56]: 0.023 µM
- GI50 [57]: < 0.01 µM
- TGI [57]: < 0.01 µM
- GI50 [58]: < 0.01 µM
- TGI [58]: 0.236 µM

Compound: C[C@@H]1C[C@H](N)C[C@H](c2ccncc2NC(=O)c2ccc(F)c(-c3c(F)cccc3F)n2)C1
- GI50 [1]: 13.3 µM
- TGI [1]: 26.1 µM
- GI50 [2]: 1.74 µM
- TGI [2]: 4.28 µM
- GI50 [3]: 13.8 µM
- TGI [3]: 26.9 µM
- GI50 [4]: 5.86 µM
- TGI [4]: 15.9 µM
- GI50 [5]: 6.02 µM
- TGI [5]: 17.2 µM
- GI50 [6]: 3.21 µM
- TGI [6]: 12.5 µM
- GI50 [7]: 7.93 µM
- TGI [7]: 20.8 µM
- GI50 [8]: 7.37 µM
- TGI [8]: 19.9 µM
- GI50 [9]: 12.8 µM
- TGI [9]: 25.5 µM
- GI50 [10]: 9.74 µM
- TGI [10]: 23.8 µM
- GI50 [11]: 8.71 µM
- TGI [11]: 22 µM
- GI50 [12]: 7.07 µM
- TGI [12]: 19.9 µM
- GI50 [13]: 12.5 µM
- TGI [13]: 25.5 µM
- GI50 [14]: 12.5 µM
- TGI [14]: 25.1 µM
- GI50 [15]: 3.43 µM
- TGI [15]: 7.63 µM
- GI50 [16]: 4.76 µM
- TGI [16]: 17.3 µM
- GI50 [17]: 5.3 µM
- TGI [17]: 14.9 µM
- GI50 [18]: 7.02 µM
- TGI [18]: 20.3 µM
- GI50 [19]: 7.54 µM
- TGI [19]: 21.2 µM
- GI50 [20]: 10.5 µM
- TGI [20]: 22.4 µM
- GI50 [21]: 15.7 µM
- TGI [21]: 29.3 µM
- GI50 [22]: 1.49 µM
- TGI [22]: 3.11 µM
- GI50 [23]: 1.9 µM
- TGI [23]: 4.02 µM
- GI50 [24]: 3.18 µM
- TGI [24]: 11.9 µM
- GI50 [25]: 6.4 µM
- TGI [25]: 19.7 µM
- GI50 [26]: 10.4 µM
- TGI [26]: 22.3 µM
- GI50 [27]: 11.7 µM
- TGI [27]: 24 µM
- GI50 [28]: 6.99 µM
- TGI [28]: 19.5 µM
- GI50 [29]: 5.53 µM
- TGI [29]: 19.2 µM
- GI50 [30]: 12.5 µM
- TGI [30]: 25.1 µM
- GI50 [31]: 2.17 µM
- TGI [31]: 10.9 µM
- GI50 [32]: 13.5 µM
- TGI [32]: 26.4 µM
- GI50 [33]: 10.2 µM
- TGI [33]: 21.9 µM
- GI50 [35]: 4.79 µM
- TGI [35]: 20.8 µM
- GI50 [36]: 4.76 µM
- TGI [36]: 17.7 µM
- GI50 [37]: 15.8 µM
- TGI [37]: 29.3 µM
- GI50 [38]: 17.2 µM
- TGI [38]: 31.1 µM
- GI50 [39]: 14.4 µM
- TGI [39]: 27.6 µM
- GI50 [40]: 16.7 µM
- TGI [40]: 30.6 µM
- GI50 [41]: 4.22 µM
- TGI [41]: 15.6 µM
- GI50 [42]: 3.42 µM
- TGI [42]: 10.2 µM
- GI50 [59]: 13.4 µM
- TGI [59]: 26.2 µM
- GI50 [43]: 5.54 µM
- TGI [43]: 10.8 µM
- GI50 [44]: 11.6 µM
- TGI [44]: 23.9 µM
- GI50 [45]: 6.36 µM
- TGI [45]: 19.3 µM
- GI50 [46]: 14.3 µM
- TGI [46]: 27.4 µM
- GI50 [47]: 16.9 µM
- TGI [47]: 30.6 µM
- GI50 [48]: 14.3 µM
- TGI [48]: 27.5 µM
- GI50 [49]: 1.65 µM
- TGI [49]: 3.03 µM
- GI50 [50]: 11.5 µM
- TGI [50]: 24 µM
- GI50 [51]: 3.6 µM
- TGI [51]: 16.3 µM
- GI50 [52]: 3.78 µM
- TGI [52]: 17.2 µM
- GI50 [53]: 14.5 µM
- TGI [53]: 27.7 µM
- GI50 [54]: 4.64 µM
- TGI [54]: 11.9 µM
- GI50 [55]: 4.81 µM
- TGI [55]: 18.1 µM
- GI50 [56]: 14.3 µM
- TGI [56]: 27.4 µM
- GI50 [57]: 0.0942 µM
- TGI [57]: 0.674 µM
- GI50 [58]: 14.4 µM
- TGI [58]: 27.5 µM
- GI50 [60]: 1.76 µM
- TGI [60]: 3.56 µM
